What was measured:
[1] = Solubility of bumetanide free acid in water with and without tetradecyl-β-D-maltoside (HPLC); type: physicochemical
Description: Bumetanide, 10 mg, in its free acid form was added to 1 mL of deionized water and mixed using a vortex and sonicator. The solution was filtered using a 0.22 μm nylon syringe filter. To 900 μL deionized water, 100 μL of the filtered bumetanide solution was added before being characterized for the concentration of the bumetanide in solution using HPLC. The concentration of bumetanide was determined using a standard curve generated by bumetanide solutions of known concentrations. […] Therefore, to the 10 mg of bumetanide, 1 mL of deionized water containing 1.0%, 0.5% or 0.1% of the surfactant tetradecyl-β-D-maltoside. The bumetanide was then solubilized using a vortex and sonicator, after which it was filtered using a 0.22 μm nylon syringe filter. To 900 μL deionized water, 100 μL of the filtered bumetanide solution was added before being characterized for the concentration of the bumetanide in solution using HPLC. The resulting bumetanide concentrations are recorded in Table 1.

in vivo = assay: in vivo; design: species or system beagle dogs; conditions: dog
Description: The purpose of this study was to assess the pharmacokinetic profiles of various formulations of bumetanide, including arginine bumetanide salts (FS-5 and FS-6) and potassium bumetanide salts (FS-3 and FS-4) for subcutaneous administration, and an bumetanide intranasal formulation (F82), which are described in Table 60, when each formulation is administered as a single subcutaneous, or intranasal in different vehicles when compared to single IV administration dose in male and female beagle dogs.
A total of four dogs were assigned to the study (3 males, 9-13 kg and 1 female, 7-10 kg) ranging from 1 to 3 years old.
The study was conducted in 6 Events in the same animals, separated by at least 48 hours or more washout period between events.
For subcutaneous administration the bumetanide formulations were injected subcutaneously (100 μL/dog), using a 25G hypodermic needle. After each application, successful dosing was verified by visual inspection of the dog injection site and after 1 minute of dosing. Only successful administrations will be accepted.
For intranasal administration, each dog was held in an upright position with the nose pointing up. The test article (50 μL) was delivered into each nostril (total 100 μL/dog). The nose was held pointing up for ˜60 seconds after dosing. After each application, successful dosing was verified by visual inspection of the pipette tip and the dog nostril.
For intravenous administration, the commercially available injection of bumetanide (Walgreens, 0.25 mg/mL) was used and administered via the cephalic vein over a period of 30 seconds (4.0 mL/dog, IV).
Body weights of the dogs were measured for each dog prior to each dose on the day of dose, and approximately 48 hours post-dose for each event. For some events, the 48 hour post-dose weight was the same weight as the pre-dose weight for the following dose. Urine production was also monitored post-dose to assess diuresis by making observations at 30 minutes, 1, 2, 3 and 4 hours post-dose. Urine volume was not measured. On each day of dosing, blood (˜600 μL/timepoint, jugular or cephalic vein) were collected in red top tubes with clotting activator (Sarstedt, Inc-41.1392.105 or similar) to obtain serum at the times described in Table 61. Blood was centrifuged at 5000×g for 10 minutes at 4° C. If the samples were collected outside the collection window, they were not be considered a protocol deviation. Serum was divided into 2 aliquots of ˜150 μL each and stored frozen at −20° C. until it was shipped to Climax Laboratories, Inc. on dry ice.

[2] = Stability of arginine and potassium bumetanide salts over four weeks; type: physicochemical; conditions: for stability of the salt solution: at either 5° C. or 25° C.
Description: The stability of the arginine and potassium bumetanide salts was monitored over a four week period with storage at either 2-8° C. or 25° C. for that time period. The bumetanide salt solutions were evaluated on the basis of pH, concentration of bumetanide in solution, the percent assay recovery and the presence of an impurity (see Tables 17 and 18).

Row | Structure (SMILES) | Assay ([2]; 1 week at 5° C.) [mg/mL] | pH ([2]; 1 week at 5° C.) | Assay ([2]; 1 week at 25° C.) [mg/mL] | pH ([2]; 1 week at 25° C.) | Assay ([2]; 2 weeks at 5° C.) [mg/mL] | pH ([2]; 2 weeks at 5° C.) | Assay ([2]; 2 weeks at 25° C.) [mg/mL] | pH ([2]; 2 weeks at 25° C.) | Assay ([2]; 4 weeks at 5° C.) [mg/mL] | pH ([2]; 4 weeks at 5° C.) | Assay ([2]; 4 weeks at 25° C.) [mg/mL] | pH ([2]; 4 weeks at 25° C.) | Assay ([2]; T0) [mg/mL] | Osmolality ([2]; T0) [mOsm/kg] | Viscosity ([2]; T0) [cP] | pH ([2]; T0) | stability of the salt solution [2] | further results
1 | CCCCNc1cc(C(=O)O)cc(S(N)(=O)=O)c1Oc1ccccc1 [Bumetanide] |  |  |  |  |  |  |  |  |  |  |  |  |  |  |  |  |  | solubility in water ([1]; free acid form, deionized water, no surfactant): Nearly no bumetanide in the free acid form was soluble water; solubility in water ([1]; not in a salt form, in the presence of surfactant): incredibly low solubility in water; AUC (in vivo; beagle, iv, 1 mg): 140 ng·h/mL; AUC (in vivo; beagle, iv, 1 mg, AUC (ng*h/mL)): 140 ng·h/mL; AUC (in vivo; both sexes, beagle, iv, 1 mg): 185 ng·h/mL; AUC(0-t) (in vivo; both sexes, beagle, iv, 1 mg): 185 ng·h/mL; AUC (in vivo; both sexes, beagle, iv, 1 mg, AUC (ng*h/mL)): 185 ng·h/mL
2 | CCCCNc1cc(C(=O)O)cc(S(N)(=O)=O)c1Oc1ccccc1.N=C(N)NCCCC(N)C(=O)O [arginine bumetanide salt] | 5.08 | 7.0 | 5.06 | 7.1 | 4.99 | 7.0 | 4.97 | 7.0 | 4.89 | 7.0 | 4.97 | 7.1 | 5.07 | 335 | 1.3 | 7.0 | stable for up to four weeks | impurity by HPLC ([2]; initially or after four weeks, 5° C. and 25° C.): no impurity was detected
3 | CCCCNc1cc(C(=O)[O-])cc(S(N)(=O)=O)c1Oc1ccccc1.[K+] [potassium bumetanide salt] | 5.18 | 7.0 | 5.10 | 7.0 | 4.97 | 7.0 | 4.96 | 7.1 | 5.00 | 7.0 | 5.03 | 7.1 | 5.10 | 317 | 1.3 | 7.0 | stable for up to four weeks | serum concentrations compared to IV administration of bumetanide (in vivo): higher serum concentrations

From patent publication US20240285566A1, “SUBCUTANEOUS FORMULATION AND METHODS FOR TREATING EDEMA REFRACTORY TO ORAL DIURETICS” (RESQ Pharmaceuticals LLC, priority 2021, published 2024)
